Tests used:
[1] = Metabolic stability in liver S9 fraction (disappearance, half-life, CLint); conditions: for half-life at 1 µM / half-life at 10 µM / microsomal CLint at 1 µM / microsomal CLint at 10 µM: pooled liver S9, pH 7.4; for Relative LC/MS peak area: with cofactors, 60 min
Protocol: (§1) Calibration curves were generated using an external standard.
Intrinsic in vitro clearance was calculated as follows: […]

[2] = Metabolite profiling by LC-MS in liver S9
Text: as §1

[3] = tested on: human hepatocytes; experiment: Metabolite profiling by LC-MS in hepatocytes; conditions: for Number of metabolites detected: human hepatocytes; for Percentage of the total peak area, Hepatocytes, Human: 120 min
Protocol: (§2) The hepatocytes were thawed and re-suspended in Celsis InVitro KHB medium (pH 7.4). […] The samples were collected and stored at − 20 °C for further analysis.
(§3) The in vitro metabolism of the five individual homologue AEs (i.e. C8EO4, C10EO5, C12EO4, C16EO8, and C18EO3) was analyzed by liquid chromatography–mass spectrometry (LC–MS). The UPLC-Q-Exactive Orbitrap MS system consisted of a Thermo Vanquish Horizon UHPLC with an autosampler, vacuum degasser, photodiode array (PDA) detector (210–500 nm), and column oven coupled to a Q-Exactive Orbitrap Focus mass spectrometer (Thermo Fisher Scientific, Waltham, MA, USA). The analytical column used was a Waters Acquity BEH C8 2.1 × 50 mm with 1.7 particle size (Waters Corp, Milford, MA, USA). The temperature of the column oven was 40 °C, and the injection volume was 4 μl. The aqueous eluent (A) was 0.1% formic acid (B) was acetonitrile. […] The eluent flow rate was 0.5 ml/min and the flow was directed to the MS through a PDA detector. The data acquisition was performed using positive Electrospray Ionization (ESI+) polarity with a capillary voltage of 3000 V. Capillary temperature was 320 °C and auxiliary gas temperature was 500 °C. The mass spectrometer was operated in the data-dependent MS2 mode, which acquires full-scan MS and MS/MS fragment ion data in the same run. Scan was performed with a resolution of 35,000 (full width at half maximum at m/z 200), while an Automated Gain Control target of a million ions, maximum injection time of 100 ms, and a scan range of 100–1000 m/z were used. […] Nitrogen was used as a sheath gas with 50 units, auxiliary gas with 10 units and as a sweep gas with 5 units. Ion chromatograms were extracted from the total ion chromatograms using calculated monoisotopic accurate masses with 5 mDa window. Calibration curves were generated using an external standard. The data were processed with Thermo Xcalibur 4.1.31.9 software.

[4] = tested on: rat hepatocytes; experiment: Metabolite profiling by LC-MS in hepatocytes; conditions: for Percentage of the total peak area, Hepatocytes, Rat: 120 min; for Number of metabolites detected: rat hepatocytes
Protocol: as §2, §3

[5] = tested on: hamster hepatocytes; experiment: Metabolite profiling by LC-MS in hepatocytes; conditions: for Number of metabolites detected: hamster hepatocytes; for Percentage of the total peak area, Hepatocytes, Hamster: 120 min
Protocol: as §2, §3

[6] = Metabolite profiling by LC-MS in buffer (incubation without cells); conditions: 120 min
Protocol: as §2, §3

[7] = Metabolic stability in liver S9 fraction (disappearance, half-life, CLint); conditions: for Initial concentration remaining after 60 min incubation: human liver S9, range over 1 and 10 µM; for microsomal CLint at 1 µM / microsomal CLint at 10 µM / half-life at 1 µM / half-life at 10 µM: human; for microsomal CLint at 1 µM / microsomal CLint at 10 µM: pooled liver S9, pH 7.4; for half-life at 1 µM: pooled liver S9, pH 7.4, Half-lives t1/2, Liver S9, 1 μM; for half-life at 10 µM: pooled liver S9, pH 7.4, Half-lives t1/2, Liver S9, 10 μM
Protocol: The metabolic stability assay was performed in a 48-well plate format (duplicate with cofactors and single without cofactors).
Each incubation contained test compound (final concentration of 1 or 10 µM), liver S9 (1.5 mg/ml protein content), Cofactors (1 mM NADPH + 1 mM UDPGA + 0.2 mM PAPS), MgCl2 (2 mM), and potassium phosphate buffer (100 mM at pH 7.4). […] The incubation was carried out at 37 °C for 60 min with and without cofactors. […] The samples were collected and stored at − 20 °C for further analysis.
as §3
(§4) The first-order rate constants k (min^−1) of the metabolism were obtained from the slope of time versus ln (% remaining) plots using Excel software. All time points (log-scale) were used in fitting the rate constant k based on visual inspection of the curves.
(§5) The in vitro half-life (t1/2) of the test compound(s) is defined as: t1/2=ln2/k
(§6) CLint,inc = k*V/(M), where V is the volume of the incubation and M is the number of cells or amount of S9 protein in the incubation.

[8] = Metabolic stability in cryopreserved hepatocytes (disappearance, half-life, CLint); conditions: human, pooled cryopreserved hepatocytes, pH 7.4
Protocol: (§7) The metabolic stability assay was performed in a 48-well plate format (duplicate with cells and single without cells).
as §2
(§8) The UPLC-Q-Exactive Orbitrap MS system consisted of a Thermo Vanquish Horizon UHPLC with an autosampler, vacuum degasser, photodiode array (PDA) detector (210–500 nm), and column oven coupled to a Q-Exactive Orbitrap Focus mass spectrometer (Thermo Fisher Scientific, Waltham, MA, USA). The analytical column used was a Waters Acquity BEH C8 2.1 × 50 mm with 1.7 particle size (Waters Corp, Milford, MA, USA). The temperature of the column oven was 40 °C, and the injection volume was 4 μl. The aqueous eluent (A) was 0.1% formic acid (B) was acetonitrile. […] The eluent flow rate was 0.5 ml/min and the flow was directed to the MS through a PDA detector. The data acquisition was performed using positive Electrospray Ionization (ESI+) polarity with a capillary voltage of 3000 V. Capillary temperature was 320 °C and auxiliary gas temperature was 500 °C. The mass spectrometer was operated in the data-dependent MS2 mode, which acquires full-scan MS and MS/MS fragment ion data in the same run. Scan was performed with a resolution of 35,000 (full width at half maximum at m/z 200), while an Automated Gain Control target of a million ions, maximum injection time of 100 ms, and a scan range of 100–1000 m/z were used. […] Nitrogen was used as a sheath gas with 50 units, auxiliary gas with 10 units and as a sweep gas with 5 units. Ion chromatograms were extracted from the total ion chromatograms using calculated monoisotopic accurate masses with 5 mDa window. Calibration curves were generated using an external standard. The data were processed with Thermo Xcalibur 4.1.31.9 software.
as §4, §5, §6

[9] = tested on: human hepatocytes; experiment: as above; conditions: human hepatocytes; for Initial concentration remaining after 120 min incubation: range over 1 and 10 µM
Protocol: as §7, §2, §8, §4, §5, §6

[10] = as above; conditions: Sprague Dawley, rat, pooled cryopreserved hepatocytes, pH 7.4
Protocol: as §7, §2, §8, §4, §5, §6

[11] = tested on: rat hepatocytes; experiment: as above; conditions: rat hepatocytes; for Initial concentration remaining after 120 min incubation: range over 1 and 10 µM
Protocol: as §7, §2, §8, §4, §5, §6

[12] = as above; conditions: Syrian, hamster, pooled cryopreserved hepatocytes, pH 7.4
Protocol: as §7, §2, §8, §4, §5, §6

[13] = tested on: hamster hepatocytes; experiment: as above; conditions: hamster hepatocytes; for Initial concentration remaining after 120 min incubation: range over 1 and 10 µM
Protocol: as §7, §2, §8, §4, §5, §6

[14] = tested on: female Colworth Wistar rats; set-up: method as in Unilever [1978]; conditions: 14C-labelled, oral, rat, ref Unilever [1978], cited from earlier work
[15] = hamster liver S9, range over 1 and 10 µM
[16] = rat liver S9, range over 1 and 10 µM
[17] = metabolite profile of C8EO4, 10 µM incubation
[18] = metabolite profile of C10EO5, 10 µM incubation, 60 min
[19] = metabolite profile of C10EO5, 10 µM incubation
[20] = metabolite profile of C12EO4, 10 µM incubation, 60 min
[21] = metabolite profile of C12EO4, 10 µM incubation

Compound | half-life at 1 µM ([1]; Sprague-Dawley, rat) [min] | half-life at 10 µM ([1]; Sprague-Dawley, rat) [min] | microsomal CLint at 1 µM ([1]; Sprague-Dawley, rat) [µL/min/mg] | microsomal CLint at 10 µM ([1]; Sprague-Dawley, rat) [µL/min/mg] | half-life at 1 µM ([1]; Syrian, hamster) [min] | half-life at 10 µM ([1]; Syrian, hamster) [min] | microsomal CLint at 1 µM ([1]; Syrian, hamster) [µL/min/mg] | microsomal CLint at 10 µM ([1]; Syrian, hamster) [µL/min/mg] | Initial concentration remaining after 60 min incubation [1, 15] | Initial concentration remaining after 60 min incubation [1, 16] | Number of metabolites detected ([2]; human liver S9) | Number of metabolites detected [3] | Number of metabolites detected [4] | Number of metabolites detected [5] | microsomal CLint at 10 µM [7] [µL/min/mg] | half-life at 10 µM [7] [min] | half-life at 10 µM [8] [min] | half-life at 10 µM [10] [min] | half-life at 1 µM [12] [min] | half-life at 10 µM [12] [min] | also measured
CCCCCCCCOCCOCCOCCOCCO [C8EO4] | 37.8 | 58.1 | 12.2 | 7.95 | 7.7 | 14.5 | 59.7 | 31.8 | 1–6% | 34–49% | 17 | 21 | 20 | 22 | 33.6 | 13.8 | 12 | 3.6 | 4.3 | 6.5 | Number of metabolites detected ([2]; hamster liver S9): 20; Number of metabolites detected ([2]; rat liver S9): 16; Percentage of the total peak area, Hepatocytes, Human [3, 17]: 0.1%; Percentage of the total peak area, Hepatocytes, Rat [4, 17]: 0.1%; Percentage of the total peak area, Hepatocytes, Hamster [5, 17]: 0.1%; Percentage of the total peak area, Hepatocytes, Buffer ([6]; metabolite profile of C8EO4, 10 µM incubation without cells): 99.8%; Initial concentration remaining after 60 min incubation [7]: 1–6%; microsomal CLint at 1 µM [7]: 39.2 µL/min/mg; half-life at 1 µM [7]: 11.8 min; half-life at 1 µM [8]: 12.9 min; Initial concentration remaining after 120 min incubation [9]: 0.1–3%; half-life at 1 µM [10]: 3.2 min; Initial concentration remaining after 120 min incubation [11]: 0.1–3%; Initial concentration remaining after 120 min incubation [13]: 0.1–3%
CCCCCCCCCCOCCOCCOCCOCCOCCO [C10EO5] | 8.3 | 12 | 55.7 | 38 | 8.1 | 12 | 57.3 | 40 | 0.01–4% | 0.01–4% | 26 | 28 | 28 | 28 | 170 | 2.7 | 4.9 | 1.9 | 4.5 | 10.6 | Percentage of the total peak area, Liver S9 without cofactors, Hamster [2, 18]: 97.9%; Percentage of the total peak area, Liver S9 without cofactors, Human [2, 18]: 97.7%; Percentage of the total peak area, Liver S9 without cofactors, Rat [2, 18]: 98.2%; Percentage of the total peak area, Hepatocytes, Human [3, 19]: 0.3%; Percentage of the total peak area, Hepatocytes, Rat [4, 19]: 0.8%; Percentage of the total peak area, Hepatocytes, Hamster [5, 19]: 0.7%; Percentage of the total peak area, Hepatocytes, Buffer ([6]; metabolite profile of C10EO5, 10 µM incubation without cells): 98.7%; Initial concentration remaining after 60 min incubation [7]: 0.01–4%; microsomal CLint at 1 µM [7]: 234 µL/min/mg; half-life at 1 µM [7]: 2 min; half-life at 1 µM [8]: 4 min; Initial concentration remaining after 120 min incubation [9]: 0.2–4%; half-life at 1 µM [10]: 2.9 min; Initial concentration remaining after 120 min incubation [11]: 0.2–4%; Initial concentration remaining after 120 min incubation [13]: 0.2–4%
CCCCCCCCCCCCOCCOCCOCCO [C12EO3] | – | – | – | – | – | – | – | – | – | – | – | – | – | – | – | – | – | – | – | – | Total recovery in urine, feces, air, and carcass of the administered compound ([14]; 4 days): ~100%; 14C in air [14]: about 10%
CCCCCCCCCCCCOCCOCCOCCOCCO [C12EO4] | 26 | 11 | 17.5 | 40.7 | – | 26 | – | 17.9 | – | – | – | 28 | – | – | 51.2 | 9 | 15 | 8.9 | 789 | 17 | Relative LC/MS peak area ([1]; hamster liver S9, 10 μM): 24%; Relative LC/MS peak area ([1]; rat liver S9, 10 μM): 3%; Percentage of the total peak area, Liver S9 with cofactors, Hamster [2, 20]: 18.1%; Percentage of the total peak area, Liver S9 with cofactors, Human [2, 20]: 2.1%; Percentage of the total peak area, Liver S9 with cofactors, Rat [2, 20]: 2.0%; Percentage of the total peak area, Liver S9 without cofactors, Hamster [2, 20]: 98.4%; Percentage of the total peak area, Liver S9 without cofactors, Human [2, 20]: 98.8%; Percentage of the total peak area, Liver S9 without cofactors, Rat [2, 20]: 99.7%; Percentage of the total peak area, Hepatocytes, Human [3, 21]: 12.5%; Percentage of the total peak area, Hepatocytes, Rat [4, 21]: 12.7%; Percentage of the total peak area, Hepatocytes, Hamster [5, 21]: 13.2%; Percentage of the total peak area, Hepatocytes, Buffer ([6]; metabolite profile of C12EO4, 10 µM incubation without cells): 79.1%; Relative LC/MS peak area ([7]; human liver S9, 10 μM, with cofactors, 60 min): 3%; Relative LC/MS peak area ([9]; 10 μM, 120 min): 40%; Relative LC/MS peak area ([11]; 10 μM, 120 min): 12%; Relative LC/MS peak area ([13]; 10 μM, 120 min): 11%
